Where “and” joins values, the source holds several entries; their conditions need not be identical. Equal entries are not always repeated. Entries after “also recorded” stand apart in the source; their conditions may differ.
Legend:
[1] = test system: primary cultured neonatal microglia; assay: IFNγ induced NO release, Griess assay; type: cell-based, mouse; settings: for level of NO, % of its initial concentration (stimulated control): 100 ng/ml IFNγ 48 hours
Procedure: (§1) Primary cultured neonatal microglia. For preparation of cultured neonatal microglia, P0-P3 mice were used. 10 brains were extracted, meninges and cerebellum were removed and put on ice with Hank's balanced salt solution (HBSS). The dissected brains were washed 3 times before adding 400 μL trypsin (0.1 mg/L) and DNAse (5 μg/L) in phosphate buffered saline (PBS). After 2 min of incubation with this solution, the reaction was blocked by adding plain medium. After removal of the medium, 1 mg DNAse was added and the cells were mechanically dissociated, with a Pasteur pipette followed by a glass pipette. The cells were centrifuged for 10 min at 129 g at 4° C. The supernatant was discarded. The pellet was resuspended in plain medium and plated (2.5 brains/flask) in Poly-L-Lysine coated flasks. The cells were washed after 2 days with PBS and incubated for another 7 days in plain medium. Afterwards the medium was replaced by plain medium with 33% L929 conditioned medium. After 2 days, cells were harvested by shaking them for 30 min at 150 rpm. The supernatant was centrifuged for 10 min at 129 g at 4° C. The cells were plated into a 96 well plate (100 000 cells/well, 200 μL medium per well). This procedure could be repeated 2 times with a 2 day interval.
(§2) Griess assay. Cells were seeded according to the protocols described above, after compounds and stimuli were added, 100 μl of supernatant was transferred into a new 96 well plate and 100 μl freshly mixed Griess reagent were added. Griess reagent was composed of reagent A (100 mg Naphthylethylene in 50 ml aqua dest.) and reagent B (1 g Sulfanilamide, […] H3PO4 (85%) in 44 mL aqua dest.) mixed 1:1. The solution was carefully mixed and the absorbance was determined in a microplate reader at a wavelength of 550 nm.
In order to test whether C1 decreases NO release induced by other stimulation agents besides LPS which is mimicking a bacterial infection, the inventors used IFNγ to mimic a Th1 cell response (Yau et al., 2016) and PolyIC to mimic an anti-viral response (Jiang and Pisetsky, 2006). Given that our aim is to determine the compound's effect on already stimulated microglia (LPS, IFNγ, and PolyIC), each individual experiment is normalized to its stimulated control.

[2] = test system: primary cultured neonatal microglia; assay: Cytokine release (IL1β, IL6, TNFα) ELISA in microglia; type: cell-based, mouse
Procedure: as §1
Enzyme-linked immunosorbent assay (ELISA). Cells were seeded according to the protocols described above, after compounds and stimuli were added, the supernatant was collected, centrifuged (500 g, 5 minutes) and stored at −20° C. until analysed. The following kits from Bio-Techne (Minneapolis, USA) were used to detect IL1β, IL6 and TNFα: ELISA Mouse IL-1β/IL-1F2 Duo Set, ELISA Mouse IL-6, ELISA Mouse TNFα. ELISA assays were performed according to the manufacturers protocol.

[3] = test system: bone marrow derived macrophages; assay: NO release in bone marrow derived macrophages, Griess assay; type: cell-based, mouse; settings: for NO release: 0.25 μM C1; for NO release, % of positive control: 2.5 μM C1
Procedure: Primary cultured macrophages. Bone marrow macrophages were isolated from C57BL/6 adult mice (P49-56) as previously described (Marim et al., 2010). In summary, mice were killed by cervical dislocation and the femurs were removed by cutting through the tibia near the pelvic bone and below the knee. Any muscle connected to the bone was carefully removed. Ice cold sterile PBS was slowly flushed through the bone and the contents were collected in a sterile 15 mL polypropylene tube on ice. After centrifugation for 10 min at 200 g at 4° C., red blood cells were lysed by adding 3-10 mL ammonium chloride solution. After a 3-5 min recovery period, the suspension was centrifuged for 10 min at 200 g at 4° C. and the supernatant was removed. Cells were plated in a 10 cm dish with plain medium containing 10 ng/mL M-CSF and cultured for 7 days to allow differentiation. 50 000 cells were plated with 200 μL medium per well in a 96 well plate.
as §2
Microglia and macrophages share many of their immune properties, therefore the inventors evaluated the impact of C1 on the release of NO and the pro-inflammatory cytokines IL1β, IL6, and TNFα on bone marrow derived macrophages (Amici et al., 2017; Li and Barres, 2017). Bone marrow derived macrophages were isolated from adult mice and pre-treated for 1 hour with C1 (0.025 μM, 0.25 μM, or 2.5 μM), its corresponding concentration of DMSO (1.25×10-5, 12.5×10-5, or 125×10-5 v/v), or plain medium before a stimulus was added. The NO release was measured after stimulation with either 1 μg/ml LPS for 48 hours (FIG. 2-1A), 100 μg/mL PolyIC for 24 hours (FIG. 2-1B) or 100 ng/ml IFNγ for 48 hours (FIG. 2-1C). […] DMSO had no effect on the NO release in bone marrow derived macrophages stimulated with LPS or PolyIC (FIGS. 2-1A and B). However, it reduced the IFNγ induced NO release in these cells independently of the applied dose (1.25×10-5 v/v: 85%, p<0.0043; 12.5×10-5 v/v: 83%, p<0.0016; 125×10-5 v/v: 85%, p<0.0046, FIG. 2-1C), similar to the effect observed in microglia when stimulated with IFNγ (FIG. 2A).

[4] = Intravenous pharmacokinetic study in mice (blood plasma)
Procedure: Intravenous Pharmacokinetic Study in Mice. The intravenous pharmacokinetic study in mice was carried out by the company Touchstone Biosciences (Plymouth Meeting, USA) according to their standard procedures. In brief, 3 male adult mice of the CD-1 strain were fasted overnight. 5 mg/kg compound was given intravenously in one shot.

[5] = 1 h C1, then 1 μg/ml LPS 48 hours
[6] = unstimulated microglia, 48 hours

## COc1ccc(NC(=O)C(NC(=O)C2CCCN2C(=O)OCc2ccccc2)c2ccc(OC)cc2)cc1 (stereo not shown) [C1]
[1]; 25 nM C1
  level of NO, % of its initial concentration (stimulated control): 84%
[1]; 250 nM C1
  level of NO, % of its initial concentration (stimulated control): 41%
[1]; 2.5 μM C1
  level of NO, % of its initial concentration (stimulated control): 22%
[1]; pre-treatment with C1
  NO release upon stimulation with IFNγ: dose dependent decrease
[2]; 0.025, 0.25, 2.5 μM C1, 1 μg/ml LPS 48 hours
  LPS induced IL1β release: exceeded the LPS-induced release; also recorded: exceeds the stimulated control significantly
[2]; [5]
  LPS induced IL6 release: no effect; also recorded: did not show a reduction
  LPS induced TNFα release: no effect; also recorded: did not show a reduction
[2]; [6]
  IL1β release, C1 alone: did not show any significant changes; also recorded: does not alter
  IL6 release, C1 alone: did not show any significant changes; also recorded: does not alter
  TNFα release, C1 alone: did not show any significant changes; also recorded: does not alter
[3]; 1 μg/mL LPS 48 hours
  NO release: reduced the NO release significantly
[3]; 100 μg/mL PolyIC 24 hours
  NO release: significant decrease
  NO release, % of positive control: 15.01±10.32% and 15%
[3]; 100 ng/mL IFNγ 48 hours
  NO release, % of positive control: 18%
[3]; 0.025, 0.25, 2.5 μM C1, LPS, PolyIC or IFNγ
  NO release, dose dependence: reduced the NO release in a dose dependent manner
[4]; 5 mg/kg intravenous, 3 mice
  survival / health issues within 24 hours: All mice survived; also recorded: no health issues were reported and all mice survived
[4]; 5 min after 5 mg/kg intravenous, CD-1 male mice
  concentration in blood plasma: 12 µM
[4]; male, CD-1, mouse, plasma, intravenous, 5 mg/kg, concentration in blood plasma, 5 min after 5 mg/kg intravenous, CD-1 male mice
  concentration at 5 min: 11.9 µM
[4]; male, CD-1, mouse, plasma, intravenous, 5 mg/kg, concentration in blood plasma, 24 hours after 5 mg/kg intravenous, CD-1 male mice
  concentration at 24 h: 0.00126 µM

Reference: patent US20240025849A1 (MAX DELBRÜCK-CENTRUM FÜR MOLEKULARE MEDIZIN IN DER …, priority 2020, published 2024)
